A short description of data set [1]: Ex-vivo rat intestinal fluid stability assay. It counts as in vitro ADME. More on the design: half-life: dose or concentration left out as unconfirmed. To be noted: 37° C.; for prodrug converted into its parent drug: after 30 minutes of incubation; for half-life: rat intestinal (jejunum) fluid, read-out: disappearance half-life (T1/2). The method, then:
Phosphate prodrugs disclosed herein were designed to be cleaved by alkaline phosphatase(s) that are present on the apical brush-border membranes of the intestine, after which the more hydrophobic parent compound is readily absorbed. Phosphatases are also present in the liver and in the systemic circulation. In order to test the speed of cleavage of the prodrug into the parent drug, […] solutions of each of the test compounds were incubated in rat intestinal (jejunum) fluid. Samples were taken at times=0, 5, 15, 30 and 60 min and the mixtures were quenched by the addition of acetonitrile containing an internal standard. Samples were analyzed by full scan LC/MS. The following protocol was used:
10 mM DMSO stock solutions were thawed or prepared for the positive control (Enalapril) and each test article. Internal standard (IS) crash solution in acetonitrile (ACN) with 20 ng/ml of Compound Z, depicted below, was prepared. Stock (250 uM) was prepared from 10 mM in 50/50 acetonitrile/H2O. Rat intestinal fluid vials were thawed in a water bath at rt.
In a 96-well, 1 ml plate, 48 uL of rat intestinal fluid was aliquoted in triplicate for each time point. The t0 (“0 min”) time point was prepared separately by adding 450 ul of IS crash solution to 48 ul of intestinal fluid, then adding 2 uL of test compound. 2 ul of the 250 uM substock was added to initiate the reaction at 5 min, 15 min, 30 min, and 60 min. The plate prepared in the above steps was covered with a plastic or foil seal and was set in the 37° C. incubator, lightly shaking. For each time point, 450 ul of IS crash solution was added to quench the reaction. The plates were centrifuged at 4000 RPM for 10 minutes at 4° C. 50 ul of supernatant was transferred into 50 ul of H2O and analyzed using LC/MS.
The disappearance of the prodrug and the conversion to the parent were monitored over time.

The conditions of data set [2]: cited from earlier work.
The conditions of data set [3]: known; cited from earlier work.
For data set [4] the following is noted: human microsomes, after 15 min; cited from earlier work.

Each structure is given as a SMILES string.

Data on four compounds can be found in patent US10927136B2, “Phosphorus prodrugs of pyrazolo-substituted pyrimidine sGC stimulators” (Cyclerion Therapeutics, Inc., priority 2016, dated 2021).

On to `O=P(O)(O)OC1(CNc2nc(-c3cc(-c4ccon4)n(Cc4ccccc4F)n3)ncc2F)CCOCC1` [Compound I-3], for which, in data set [1], the “prodrug converted into its parent drug” value was “about 25%”. In data set [1] (after 60 minutes of incubation), the prodrug remaining uncleaved result was “less than 10%”.
On to `O=P(O)(O)OC(Cn1cncn1)(Cn1cncn1)c1ccc(F)cc1F` [fosfluconazole], for which the prodrug remaining uncleaved result in data set [1] (after 60 minutes of incubation) is recorded as “About 80%”. In data set [1], the half-life came to 211 min. Moreover, in data set [2], the “human half-life (from published data)” value is 90 to 150 min. Besides, the “cleavage to the parent drug in vivo” value in data set [3] was “known to cleave slowly to the parent drug in vivo”.
As to `O=C1NC(c2ccccc2)(c2ccccc2)C(=O)N1COP(=O)(O)O` [fosphenytoin], in data set [1], the “prodrug converted into its parent drug” value is “More than 80%” and the half-life is 5 min. The prodrug remaining uncleaved result in data set [1] (after 60 minutes of incubation) is on record as “no prodrug could be detected”. Besides, in data set [2], the “human half-life (from published data)” value is 8 to 15 min. In data set [3], the “cleavage to the parent drug in vivo” value is listed as “known to cleave to the parent drug quickly in vivo”.
With `COc1cc(Nc2ncc(F)c(Nc3ccc4c(n3)N(COP(=O)(O)O)C(=O)C(C)(C)O4)n2)cc(OC)c1OC` [fostamatinib], in data set [1], the “prodrug converted into its parent drug” value is on record as “About 50%” and the half-life stood at 34 min. Also, the “prodrug converted into its parent drug / cleaved” value in data set [1] (after 60 minutes of incubation) is “About 80%”. Also, the “quantifiable fostamatinib in subjects” value in data set [2] (human clinical trials, oral dosing, after the 2-hour time point) is on record as “no quantifiable fostamatinib was observed”. Besides, in data set [4], the hydrolysis of prodrug entry is given as “fully hydrolized”. Further, the “cleavage to the parent drug in vivo” value in data set [3] is listed as “known to cleave to the parent drug quickly in vivo”.
